Patent US8273769B2, “Phenoxy acetic acid derivatives” (Merck Serono SA, priority 2009, dated 2012)

Assays:
[1] = biological target: T1, CRTH2 (Homo sapiens, UniProt Q9Y5Y4); assay: Radioligand binding Scintillation Proximity Assay ([3H]PGD2, hCRTH2-CHO cell membranes); parameters: host or cells: CHO cells; details: 1.5 nM [3H]PGD2, hCRTH2-CHO cell membranes, SPA
T1 sequence (Q9Y5Y4 1-395): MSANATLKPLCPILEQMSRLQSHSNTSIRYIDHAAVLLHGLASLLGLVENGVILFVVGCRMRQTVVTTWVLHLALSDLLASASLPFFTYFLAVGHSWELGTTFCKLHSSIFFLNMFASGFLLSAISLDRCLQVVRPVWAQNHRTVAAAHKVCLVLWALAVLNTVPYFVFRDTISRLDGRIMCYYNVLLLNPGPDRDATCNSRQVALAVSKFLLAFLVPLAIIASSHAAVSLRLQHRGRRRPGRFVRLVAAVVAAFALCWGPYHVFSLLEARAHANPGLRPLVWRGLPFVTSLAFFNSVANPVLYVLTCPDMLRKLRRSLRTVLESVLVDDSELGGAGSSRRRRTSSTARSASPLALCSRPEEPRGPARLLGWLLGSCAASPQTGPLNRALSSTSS
Procedure, shortened: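 SPA competition binding at room temperature, 90 min with agitation: 1.5 nM [3H]PGD2, 10-50 μg/ml hCRTH2-CHO membrane protein, WGA SPA beads, HEPES pH 7.4 with 10 mM MnCl2, 1% DMSO. Non-specific binding defined with 10 μM PGD2; scintillation counting.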

[2] = biological target: T1, CRTH2; assay: Cellular Dielectric Spectroscopy (CHO-CRTH2 cells); assay type: cell-based; parameters: expressed in transfected cells; host or cells: CHO-CRTH2 cells; details: for IC50: antagonist mode, fixed concentration of PGD2 (EC80)
Protocol: Cellular Dielectric Spectroscopy (CDS) is a label-free technology based on the measurement of complex impedance changes (delta Z or dZ). Impedance (Z) is related to the ratio of voltage to current as described by Ohm's law (Z=V/I). In order to measure the changes in impedance that occur in response to receptor stimulation, mammalian cells are seeded onto a custom 96-well microliter plate that contains electrodes at the bottom of each well. Key contributors to the impedance measurements are changes in cell-substrate adherence, changes in cell shape and volume, and changes in cell-cell interactions. These factors individually or collectively affect the flow of current, influencing the magnitude and characteristics of the signal measured. G-protein coupled receptors ligand-induced activity can be measured using this technology and specific G protein coupling can be identified. Activities of reference agonist and antagonist molecules of CRTH2 have been measured using this assay and similar results were obtained compared to different functional assays.
CHO-CRTH2 cells are cultured in HAM's F12 (Lonza, Switzerland) supplemented with 10% foetal calf serum (PAA, Australia) and 400 μg/ml Geneticin. 100000 cells/well are seeded in standard 96W Microplates (MDS Analytical Technologies) and incubated at 37° C. in 5% CO2 for 24 hours. Cells are washed twice with 135 μl of cell key buffer (Hank's Balanced Salt Solution 1× (HBSS) (Invitrogen) supplemented with 10 mM HEPES pH 7.4 in presence of 1% DMSO). For EC50 determination. 15 μl of increasing concentration of Compounds of Formula (I) diluted in cell key buffer are added to the cells and agonist activity is then recorded for 25 minutes. […] Results are expressed as the amplitude between the highest and the lowest signal produced (max-min). Basal and maximum activities are measured, respectively in absence or presence of PGD2 (EC80).

[3] = partial agonists, agonist activity without PGD2

Row | SMILES | IC50 [1] [nM] | other results
1 | Cc1ccncc1C#Cc1cc(Cl)ccc1OCC(=O)O [Example 15, {4-chloro-2-[(4-methylpyridin-3-yl)ethynyl]phenoxy}acetic acid] | 30 | IC50 [2]: 74 nM; EC50 [2, 3]: 53 nM; Emax [2, 3]: 46%
2 | Cc1ccc(S(=O)(=O)CC(C)C)cc1C#Cc1cc(Cl)ccc1OCC(=O)O [Example 53, (4-chloro-2-{[5-(isobutylsulfonyl)-2-methylphenyl]ethynyl}phenoxy)acetic acid] | 5 | IC50 [2]: 50 nM
3 | Cc1ccc(S(=O)(=O)N(C)C(C)C)cc1C#Cc1cc(Cl)ccc1OCC(=O)O [Example 87, {4-chloro-2-[(5-{[isopropyl(methyl)amino]sulfonyl}-2-methylphenyl)ethynyl]phenoxy}acetic acid] | 6 | IC50 [2]: 83 nM
4 | Cc1ccc(S(=O)(=O)NC(C)C)cc1C#Cc1cc(Cl)ccc1OCC(=O)O [Example 86, [4-chloro-2-({5-[(isopropylamino)sulfonyl]-2-methylphenyl}ethynyl)phenoxy]acetic acid] | 5 | IC50 [2]: 118 nM
5 | CC(C)c1ccc(S(C)(=O)=O)cc1C#Cc1cc(Cl)ccc1OCC(=O)O [Example 70, (4-chloro-2-{[2-isopropyl-5-(methylsulfonyl)phenyl]ethynyl}phenoxy)acetic acid] | 7 | IC50 [2]: 21 nM
6 | CN(C)S(=O)(=O)c1cncc(C#Cc2cc(C#N)ccc2OCC(=O)O)c1 [Example 67, [4-cyano-2-({5-[(dimethylamino)sulfonyl]pyridin-3-yl}ethynyl)phenoxy]acetic acid] | 86 | IC50 [2]: 34 nM
7 | CC(C)c1ccc(S(C)(=O)=O)cc1C#Cc1cc(C#N)ccc1OCC(=O)O [Example 71, (4-cyano-2-{[2-isopropyl-5-(methylsulfonyl)phenyl]ethynyl}phenoxy)acetic acid] | 16 | IC50 [2]: 15 nM
8 | O=C(O)COc1ccc(Cl)cc1C#Cc1ccc(NC(=O)c2ccc(C(F)(F)F)cc2)cc1 [Example 150, {4-chloro-2-[(4-{[4-(trifluoromethyl)benzoyl]amino}phenyl)ethynyl]phenoxy}acetic acid] | 267 | –
9 | Cc1ccc(S(=O)(=O)CCc2ccccc2)cc1C#Cc1cc(C#N)ccc1OCC(=O)O [Example 96, [4-cyano-2-({2-methyl-5-[(2-phenylethyl)sulfonyl]phenyl}ethynyl)phenoxy]acetic acid] | 7 | –
10 | COC1c2ccc(C#Cc3cc(Cl)ccc3OCC(=O)O)cc2S(=O)(=O)C1(C)C (centres unmarked) [Example 161, {4-chloro-2-[(3-methoxy-2,2-dimethyl-1,1-dioxido-2,3-dihydro-1-benzothien-6-yl)ethynyl]phenoxy}acetic acid] | 24 | –
11 | CS(=O)(=O)c1cc(C#Cc2cc(Cl)ccc2OCC(=O)O)ccc1-c1ccccc1Cl [Example 146, (4-chloro-2-{[2′-chloro-2-(methylsulfonyl)biphenyl-4-yl]ethynyl}phenoxy)acetic acid] | 4 | –
12 | O=C(O)COc1ccc(Cl)cc1C#Cc1ccc(Cl)cc1 [Example 2, {4-chloro-2-[(4-chlorophenyl)ethynyl]phenoxy}acetic acid] | 91 | –
13 | O=C(O)COc1ccc(Cl)cc1C#Cc1cc(S(=O)(=O)C(F)(F)F)ccc1Cl [Example 130, [4-chloro-2-({2-chloro-5-[(trifluoromethyl)sulfonyl]phenyl}ethynyl)phenoxy]acetic acid] | 9 | –
14 | Cc1ccc(S(=O)(=O)N2CCN(C)CC2)cc1C#Cc1cc(Cl)ccc1OCC(=O)O [Example 112, [4-chloro-2-({2-methyl-5-[(4-methylpiperazin-1-yl)sulfonyl]phenyl}ethynyl)phenoxy]acetic acid] | 27 | –
15 | CS(=O)(=O)c1ccc(N2CCCCC2)c(C#Cc2cc(Cl)ccc2OCC(=O)O)c1 [Example 57, (4-chloro-2-{[5-(methylsulfonyl)-2-piperidin-1-ylphenyl]ethynyl}phenoxy)acetic acid] | 280 | –
16 | COc1cccc(-c2ccc(C#Cc3cc(Cl)ccc3OCC(=O)O)cc2S(C)(=O)=O)c1 [Example 142] | 9 | –

Row | SMILES | IC50 [1] [nM] | other results
17 | CN(c1cncc(C#Cc2cc(C#N)ccc2OCC(=O)O)c1)S(C)(=O)=O [Example 72, [4-cyano-2-({5-[methyl(methylsulfonyl)amino]pyridin-3-yl}ethynyl)phenoxy]acetic acid] | 364 | –
18 | CS(=O)(=O)c1ccc(C#Cc2cc(Cl)ccc2OCC(=O)O)cc1 [Example 90, (4-chloro-2-{[4-(methylsulfonyl)phenyl]ethynyl}phenoxy)acetic acid] | 154 | –
19 | CS(=O)(=O)c1cncc(C#Cc2cc(Cl)ccc2OCC(=O)O)c1 [Example 36, (4-chloro-2-{[5-(methylsulfonyl)pyridin-3-yl]ethynyl}phenoxy)acetic acid] | 75 | –
20 | CCCCCCc1ccncc1C#Cc1cc(Cl)ccc1OCC(=O)O [Example 29, {4-chloro-2-[(4-hexylpyridin-3-yl)ethynyl]phenoxy}acetic acid] | 51 | –
21 | Cc1ccc(S(N)(=O)=O)cc1C#Cc1cc(Cl)ccc1OCC(=O)O [Example 120, (2-{[5-(aminosulfonyl)-2-methylphenyl]ethynyl}-4-chlorophenoxy)acetic acid] | 25 | –
22 | Cc1ccc(S(=O)(=O)CCO)cc1C#Cc1cc(Cl)ccc1OCC(=O)O [Example 52, [4-chloro-2-({5-[(2-hydroxyethyl)sulfonyl]-2-methylphenyl}ethynyl)phenoxy]acetic acid] | 25 | –
23 | CS(=O)(=O)c1cc(C#Cc2cc(Cl)ccc2OCC(=O)O)ccc1-c1cccc(Cl)c1 [Example 145, (4-chloro-2-{[3′-chloro-2-(methylsulfonyl)biphenyl-4-yl]ethynyl}phenoxy)acetic acid] | 19 | –
24 | Cc1ccc(S(=O)(=O)N2CCCCC2C)cc1C#Cc1cc(Cl)ccc1OCC(=O)O (centres unmarked) [Example 108, [4-chloro-2-({2-methyl-5-[(2-methylpiperidin-1-yl)sulfonyl]phenyl}ethynyl)-phenoxy]acetic acid] | 2 | –
25 | O=C(O)COc1ccc(Cl)cc1C#Cc1cncc(S(=O)(=O)N2CC(F)(F)C2)c1 [Example 78, [4-chloro-2-({5-[(3,3-difluoroazetidin-1-yl)sulfonyl]pyridin-3-yl}ethynyl)phenoxy]acetic acid] | 40 | –
26 | N#Cc1ccc(OCC(=O)O)c(C#Cc2cncc(S(=O)(=O)NCCO)c2)c1 [Example 75, {4-cyano-2-[(5-{[(2-hydroxyethyl)amino]sulfonyl}pyridin-3-yl)ethynyl]phenoxy}acetic acid] | 372 | –
27 | CS(=O)(=O)Cc1cccc(C#Cc2cc(Cl)ccc2OCC(=O)O)c1 [Example 98, [4-chloro-2-({3-[(methylsulfonyl)methyl]phenyl}ethynyl)phenoxy]acetic acid] | 60 | –
28 | CCC(C)NS(=O)(=O)c1ccc(C)c(C#Cc2cc(Cl)ccc2OCC(=O)O)c1 (centres unmarked) [Example 114, [2-({5-[(sec-butylamino)sulfonyl]-2-methylphenyl}ethynyl)-4-chlorophenoxy]acetic acid] | 3 | –
29 | Cc1ccc(OCC(=O)O)c(C#Cc2ccccc2Cl)c1 [Example 27, {2-[(2-chlorophenyl)ethynyl]-4-methylphenoxy}acetic acid] | 346 | –
30 | CCCN(C)S(=O)(=O)c1ccc(C)c(C#Cc2cc(Cl)ccc2OCC(=O)O)c1 [Example 115, {4-chloro-2-[(2-methyl-5-{[methyl(propyl)amino]sulfonyl}phenyl)ethynyl]phenoxy}acetic acid] | 5 | –
31 | O=C(O)COc1ccc(Cl)cc1C#Cc1ccc(F)cc1F [Example 8, {4-chloro-2-[(2,4-difluorophenyl)ethynyl]phenoxy}acetic acid] | 123 | –
32 | O=C(O)COc1ccc(Cl)cc1C#Cc1ccc2c(c1)S(=O)(=O)CC2 [Example 155, {4-chloro-2-[(1,1-dioxido-2,3-dihydro-1-benzothien-6-yl)ethynyl]phenoxy}acetic acid] | 29 | –
